Reference: patent US20250346599A1, “TRICYCLIC PHTHALAZINONE PARP INHIBITORS AND METHODS OF USE” (Valo Health, Inc., priority 2022, published 2025)

Legend:
[1] = target: PARP1 enzyme (Homo sapiens (Human), UniProt P09874); assay: PARP Mass Spectroscopy Assay (PARP1 enzymatic assay, nicotinamide detection); assay type: biochemical; conditions: 5 nM PARP1, 5 uM β-NAD, 60 min at RT, NAM by mass spectrometry
Outline: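 Compounds were pre-incubated 30 min at RT with 5 nM PARP1 and core histones, then reacted 60 min at RT with 5 uM β-NAD and activated DNA in Tris pH 8.0 buffer with MgCl2, NaCl, Triton X-100 and DTT. The reaction was quenched with 3ABA, and nicotinamide was measured by mass spectrometry. IC50 came from a four-parameter fit of 10-point curves.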

[2] = target: human MDR1 (P-glycoprotein; P-gp) (Homo sapiens (Human), UniProt P08183); assay: bi-directional MDCK-MDR1 permeability assay; assay type: in vitro ADME; conditions: for Papp A→B: dog; for Papp A→B / efflux ratio: MDCK-MDR1; for Papp A→B / MDCK-MDR1 Papp A→B (10^−6 cm/s): apical to basolateral direction; for efflux ratio: human, read-out: MDCK-MDR1 ER; for efflux ratio / MDCK-MDR1 ER: efflux ratio B→A/A→B
human MDR1 (P-glycoprotein; P-gp), sequence (P08183 whole entry): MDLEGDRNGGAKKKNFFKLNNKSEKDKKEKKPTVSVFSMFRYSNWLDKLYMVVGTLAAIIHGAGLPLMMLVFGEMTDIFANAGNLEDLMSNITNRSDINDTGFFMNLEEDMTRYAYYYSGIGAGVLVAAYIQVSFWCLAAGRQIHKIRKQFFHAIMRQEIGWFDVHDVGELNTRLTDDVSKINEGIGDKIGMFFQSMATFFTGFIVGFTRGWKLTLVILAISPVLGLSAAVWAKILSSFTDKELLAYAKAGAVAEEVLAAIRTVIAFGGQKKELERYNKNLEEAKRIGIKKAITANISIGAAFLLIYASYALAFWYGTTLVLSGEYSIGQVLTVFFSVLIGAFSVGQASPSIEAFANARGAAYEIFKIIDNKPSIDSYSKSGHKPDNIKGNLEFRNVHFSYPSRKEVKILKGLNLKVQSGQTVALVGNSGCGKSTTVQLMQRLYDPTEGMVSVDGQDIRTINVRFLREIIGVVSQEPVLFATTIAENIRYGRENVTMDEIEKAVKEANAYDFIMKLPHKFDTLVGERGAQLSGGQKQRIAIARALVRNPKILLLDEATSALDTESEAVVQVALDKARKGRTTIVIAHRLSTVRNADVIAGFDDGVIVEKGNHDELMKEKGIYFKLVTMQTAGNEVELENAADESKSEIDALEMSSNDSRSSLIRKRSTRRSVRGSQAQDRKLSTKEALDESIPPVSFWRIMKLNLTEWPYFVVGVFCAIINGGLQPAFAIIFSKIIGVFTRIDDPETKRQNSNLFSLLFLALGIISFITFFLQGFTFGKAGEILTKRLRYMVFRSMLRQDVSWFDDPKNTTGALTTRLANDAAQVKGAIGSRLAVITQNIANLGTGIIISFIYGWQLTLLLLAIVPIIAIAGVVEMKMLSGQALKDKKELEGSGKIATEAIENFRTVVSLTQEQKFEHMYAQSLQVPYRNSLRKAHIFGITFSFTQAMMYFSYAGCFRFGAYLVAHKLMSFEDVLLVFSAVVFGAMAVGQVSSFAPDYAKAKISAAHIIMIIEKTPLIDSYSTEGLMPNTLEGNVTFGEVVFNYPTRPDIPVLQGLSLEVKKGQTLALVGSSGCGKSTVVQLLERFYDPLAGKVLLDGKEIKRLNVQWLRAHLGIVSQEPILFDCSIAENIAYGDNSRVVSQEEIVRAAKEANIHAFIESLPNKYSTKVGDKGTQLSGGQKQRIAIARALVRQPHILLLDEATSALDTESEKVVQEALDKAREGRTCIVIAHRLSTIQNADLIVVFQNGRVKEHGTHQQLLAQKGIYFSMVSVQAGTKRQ
Text: The bi-directional assay containing a Mandin Darby canine kidney (MDCK) cell line transfected with human MDR1 gene (P-glycoprotein; P-gp) designed to overexpress the MDR1 efflux transporter, a major efflux transporter at the blood brain barrier (BBB), uses an established method that measures the rate of flux of a compound across polarized cell monolayers. As well appreciated in the art, the data generated from the MDCK-MDR1 permeability assay may be used to predict in vivo absorption of drugs. The bi-directional MDCK-MDR1 permeability assay can identify and quantify levels of active efflux. Screening compounds in both the apical to basolateral direction (A→B) and basolateral to apical direction (B→A) across the cell monolayer provides a ratio of B→A/A→B (efflux ratio; “ER”). Unlike the Caco-2 assay, the MDCK-MDR1 assay is not subject to potential efflux interference by breast cancer resistance protein (BCRP). […] The data may further be used to predict blood brain barrier (BBB) permeability via calculation from the data of log(permeability-surface area product) (“log PS”), well-understood to be predictive of the in vivo log([brain concentration]/[plasma concentration]).

[3] = in vivo unbound brain to plasma ratio (Kpuu) at steady state; conditions: rat, brain and plasma (unbound), continuous intravenous infusion over 24 hours, Sprague Dawley rats, free drug in brain vs plasma
Method: Compounds of the present technology are predicted to show BBB passage according to internal proprietary predictive models. These predictive models were further verified by in vivo experiments. In particular, in vivo unbound brain to plasma ratio (Kpuu) was measured at steady state by comparison of free drug concentrations (protein binding corrected) in brain and plasma after continuous intravenous infusion in Sprague Dawley rats over 24 hours, where a Kpuu of >0.3 represents good brain exposure of the compound.

[4] = literature statement; cited from earlier work
[5] = system: tumors; conditions: literature statement; cited from earlier work

PARP1 enzyme, sequence (P09874 whole entry): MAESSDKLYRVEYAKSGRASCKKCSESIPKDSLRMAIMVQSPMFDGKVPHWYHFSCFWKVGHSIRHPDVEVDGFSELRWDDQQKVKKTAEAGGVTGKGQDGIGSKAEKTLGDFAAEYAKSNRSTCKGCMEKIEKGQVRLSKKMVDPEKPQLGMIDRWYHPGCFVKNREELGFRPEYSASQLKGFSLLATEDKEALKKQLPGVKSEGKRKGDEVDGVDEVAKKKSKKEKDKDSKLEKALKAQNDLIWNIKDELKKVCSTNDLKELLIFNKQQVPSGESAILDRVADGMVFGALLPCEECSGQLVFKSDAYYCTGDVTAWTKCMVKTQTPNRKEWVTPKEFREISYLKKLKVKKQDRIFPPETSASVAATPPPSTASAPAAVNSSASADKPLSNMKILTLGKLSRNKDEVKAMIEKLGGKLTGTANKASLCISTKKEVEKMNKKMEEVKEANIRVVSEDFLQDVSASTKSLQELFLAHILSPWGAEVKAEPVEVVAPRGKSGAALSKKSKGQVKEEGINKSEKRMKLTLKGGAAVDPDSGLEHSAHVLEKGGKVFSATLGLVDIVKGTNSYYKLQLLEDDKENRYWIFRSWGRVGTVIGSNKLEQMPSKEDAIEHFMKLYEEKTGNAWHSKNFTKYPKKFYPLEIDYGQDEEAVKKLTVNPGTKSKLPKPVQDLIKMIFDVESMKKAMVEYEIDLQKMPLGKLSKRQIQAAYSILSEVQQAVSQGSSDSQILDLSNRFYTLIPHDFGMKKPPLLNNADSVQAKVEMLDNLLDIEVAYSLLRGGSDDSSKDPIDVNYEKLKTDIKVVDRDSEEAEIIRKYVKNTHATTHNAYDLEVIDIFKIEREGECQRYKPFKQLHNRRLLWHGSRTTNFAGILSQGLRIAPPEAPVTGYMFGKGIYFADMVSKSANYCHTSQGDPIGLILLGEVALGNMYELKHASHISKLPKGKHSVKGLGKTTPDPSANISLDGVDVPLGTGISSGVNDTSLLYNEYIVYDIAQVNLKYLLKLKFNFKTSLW

Structure (SMILES)	IC50 [1]	MDCK-MDR1 Papp A→B (10^−6 cm/s) [2]	MDCK-MDR1 ER [2]	also measured
O=c1[nH]nc2c3c(cc(F)cc13)NC[C@@H]2c1ccc(F)cc1F [Compound 0114B, (S)-9-(2,4-difluorophenyl)-5-fluoro-2,7,8,9-tetrahydro-3H-pyrido[4,3,2-de]phthalazin-3-one]	41 nM			Papp A→B [2]: 18.6 ×10⁻⁶ cm/s; efflux ratio [2]: 0.55; Kp uu at 24 h [3]: 0.921
C[C@@H]1Nc2cc(F)cc3c(=O)[nH]nc(c23)[C@H]1c1ccc(F)cc1F [Compound 0174B, (8S,9S)-9-(2,4-difluorophenyl)-5-fluoro-8-methyl-2,7,8,9-tetrahydro-3H-pyrido[4,3,2-de]phthalazin-3-one]	8 nM			Papp A→B [2]: 13.8 ×10⁻⁶ cm/s; efflux ratio [2]: 0.654; Kp uu at 24 h [3]: 0.591
O=c1[nH]nc2c3c(cc(F)cc13)N[C@@H](C1CC1)[C@@H]2c1ccccc1Cl [Compound 0207A, (11S,12S)-12-(2-chlorophenyl)-11-cyclopropyl-7-fluoro-2,3,10-triazatricyclo[7.3.1.0^{5,13}]trideca-1,5(13),6,8-tetraen-4-one]	64 nM	9.65 10^−6 cm/s	0.741	
O=c1[nH]nc2c3c(cc(F)cc13)N[C@H](C1CC1)[C@H]2c1ccccc1Cl [Compound 0207B, (11R,12R)-12-(2-chlorophenyl)-11-cyclopropyl-7-fluoro-2,3,10-triazatricyclo[7.3.1.0^{5,13}]trideca-1,5(13),6,8-tetraen-4-one]	6 nM	14.4 10^−6 cm/s	0.532	
O=c1[nH]nc2c3c(cc(F)cc13)N[C@@H](C1CCOCC1)[C@@H]2c1ccccc1Cl [Compound 0210A, (11S,12S)-12-(2-chlorophenyl)-7-fluoro-11-(oxan-4-yl)-2,3,10-triazatricyclo[7.3.1.0^{5,13}]trideca-1,5(13),6,8-tetraen-4-one]	106 nM	2.91 10^−6 cm/s	6.97	
O=c1[nH]nc2c3c(cc(F)cc13)N[C@H](C1CCOCC1)[C@H]2c1ccccc1Cl [Compound 0210B, (11R,12R)-12-(2-chlorophenyl)-7-fluoro-11-(oxan-4-yl)-2,3,10-triazatricyclo[7.3.1.0^{5,13}]trideca-1,5(13),6,8-tetraen-4-one]	142 nM	2.27 10^−6 cm/s	9.91	
O=c1[nH]nc2c3c(cc(F)cc13)NC[C@H]2c1ccccn1 [Compound 0211A]	27 nM	9.25 10^−6 cm/s	2.67	
O=c1[nH]nc2c3c(cc(F)cc13)N[C@@H](C1CCC(F)(F)CC1)[C@@H]2c1ccccc1Cl [Compound 0213B]	130 nM	4.93 10^−6 cm/s	3.33	
CC(C)[C@@H]1Nc2cc(F)cc3c(=O)[nH]nc(c23)[C@H]1c1c(F)cc(F)cc1F [Compound 0221B]	19 nM	8.48 10^−6 cm/s	1.15	
CC(C)[C@H]1Nc2cc(F)cc3c(=O)[nH]nc(c23)[C@H]1c1ccccc1Cl [Compound 0222B]	18 nM	9.59 10^−6 cm/s	0.92	
CC(=O)N1CCC([C@@H]2Nc3cc(F)cc4c(=O)[nH]nc(c34)[C@H]2c2ccccc2Cl)CC1 [Compound 0223B]	9 nM	0.685 10^−6 cm/s	37	
NC(=O)c1cccc2cn(-c3ccc([C@@H]4CCCNC4)cc3)nc12 [niraparib]				central nervous system (CNS) penetration [4]: do not have good central nervous system (CNS) penetration
O=C(c1cc(Cc2n[nH]c(=O)c3ccccc23)ccc1F)N1CCN(C(=O)C2CC2)CC1 [olaparib]				central nervous system (CNS) penetration [4]: do not have good central nervous system (CNS) penetration
CNCc1ccc(-c2[nH]c3cc(F)cc4c3c2CCNC4=O)cc1 [rucaparib]				central nervous system (CNS) penetration [4]: do not have good central nervous system (CNS) penetration
Cn1ncnc1[C@H]1c2n[nH]c(=O)c3cc(F)cc(c23)N[C@@H]1c1ccc(F)cc1 [talazoparib]				central nervous system (CNS) penetration [4]: do not have good central nervous system (CNS) penetration
C[C@]1(c2nc3c(C(N)=O)cccc3[nH]2)CCCN1 [veliparib]				efficacy in tumors [5]: not efficacious in most tumors
